# Results as given in US6967102B1, “Nitric oxide manipulation of muscle satellite cell activation” (University of Manitoba, priority 1999, dated 2005).
# “Also recorded” adds a separate entry of the source.
# Experiments:
# Format in all cases: in vivo
# regenerating muscle = assay: Muscle regeneration 6 days after crush injury, normal mice
# Description: (§1) The time course of treatment effects was determined at two intervals; during the early response 0, 5, 10 and 30 min after injury, and over the longer term after 6 days recovery. Short term experiments were repeated at least twice. The longer term animals were maintained either on plain drinking water or water containing fresh L-NAME at 12.5 mg/100 ml (30 mg/kg/day), based on an intake of 6–7 ml/day/mouse (McIntosh et al., 1994. 17:444–453). In the longer term repair studies, there were 4 normal mice in each of saline- and L-NAME-treated groups. An additional 2 normal and 2 mdx mice were injected once before injury with L-NAME and given plain water for 6 days.
# In the longer term study of NOS inhibition during repair, saline and L-NAME-treated normal mice recovered for 6 days. Two mice per group were injected 2 hr before sacrifice with BrdU (i.p., 1.6 mg in 0.4 ml saline) and sections were immunostained using anti-BrdU antibodies as above.
# Sections and cultures were viewed on an Olympus microscope equipped with epifluorescence and phase contrast optics. Observations were based on systematic viewing of 2–4 longitudinal sections per muscle (separated by […]). In the case of muscle regenerating from crush injury, observations (without knowledge of treatment group) were made in pre-set fields of muscle from the central crush region, the adjacent regenerating region and the surviving region as reported (McIntosh et al. (1994) Muscle Nerve 17: 444–453). Representative photographs of muscle fibers and satellite cells were taken on over 700 frames of ASA 400 Fuji Sensia slide film. Where stated, the number of satellite cells observed in each category, group or condition was estimated from photographed slides rather than from direct counts made during observations under oil immersion. Selected slides were scanned (Olympus Film Scanner ES-10, Olympus Optical Co., Tokyo), formatted into plates with little or no enlargement and printed (Freehand 8.0, Macromedia Inc.).
# regenerating mdx muscles = assay: Muscle regeneration 6 days after crush injury, mdx mice; conditions: single L-NAME injection
# Description: as §1
# Sections and cultures were viewed on an Olympus microscope equipped with epifluorescence and phase contrast optics. Observations were based on systematic viewing of 2–4 longitudinal sections per muscle (separated by […]). In the case of muscle regenerating from crush injury, observations (without knowledge of treatment group) were made in pre-set fields of muscle from the central crush region, the adjacent regenerating region and the surviving region as reported (McIntosh et al. (1994) Muscle Nerve 17: 444–453). Representative photographs of muscle fibers and satellite cells were taken on over 700 frames of ASA 400 Fuji Sensia slide film. […]
# dystrophic muscle = assay: Longer term systemic L-NAME treatment, severity of dystrophy in mdx mice; conditions: systemic L-NAME (3 weeks / drinking water); young mdx animals; diaphragm, SOL, EDL, TA
# Source text: The present results address for the first time the initial steps of satellite cell activation. A single exposure to NOS inhibition had subtle effects on myotube formation that echo NO-stimulated myoblast fusion in vitro. Longer NOS inhibition reduced the effectiveness of repair and restricted its distribution, in agreement with the idea that shear-induced responses become attenuated longitudinally away from the injury. The significant negative effect of pharmacologic NOS inhibition on myogenic repair reported here was further extended by the recent preliminary studies on repair in NOS-I knockout mice (n≈2), and during longer term NOS inhibition in mdx mice (n≈22).
# A study of 4 groups (n≈10/group) of mdx dystrophic mice treated with placebo, deflazacort, deflazacort plus L-NAME (a NOS inhibitor), or deflazacort plus L-arginine (a […]). Deflazacort was given by daily injection (ip) and L-NAME and L-arginine were given systemically in the drinking water.
# [1] = Muscle weight to body weight (edema) and haemorrhage after crush injury, mdx mice; conditions: L-NAME ip 30 min before crush
compound,measurement,setting,value
"COC(=O)[C@@H](N)CCCNC(=N)N[N+](=O)[O-] [L-NAME, Nω-nitro-L-arginine methyl ester]",muscle regeneration,"regenerating muscle; L-NAME in drinking water (30 mg/kg/day) over 6 days of repair, n=4",muscle regeneration was reduced; also recorded: reduces normal muscle regeneration
same,density of myotubes per field vs saline-treated mice,regenerating muscle; L-NAME over 6 days of repair,much lower density per field
same,branched myotubes,regenerating muscle; longer term L-NAME exposure of regenerating mdx and normal muscle in vivo,high prevalence of branched myotubes
same,myotubes appearing as incompletely fused blocks of cells,"regenerating muscle; single injection of L-NAME before injury, 6 days, estimated",5–10%
same,muscle regeneration after 6 days,"regenerating muscle; single injection of L-NAME before injury, n=2",subtle effects on muscle regeneration
same,"new myotubes in continuity with satellite cells, anchored inside external lamina sheaths",regenerating mdx muscles; 6 days,roughly 5%
same,regenerating muscle over 6 days,regenerating mdx muscles; n=2,subtle changes in regenerating mdx muscles
same,severity of dystrophy,dystrophic muscle,appeared to increase the severity of dystrophy; also recorded: makes dystrophy more severe
same,increase in RTA weight after injury,[1],abolished the increase in RTA weight for 30 min
